Test results reported in US20200115688A1, “COMPOSITIONS AND METHODS FOR ENHANCING GENOME EDITING” (The Regents of the University of California, priority 2017, published 2020).

Tested on: Neural progenitor cells with a tdTomato reporter gene
Experiment: Cas9 RNP genome editing in neural progenitor cells pretreated with Bafilomycin A1
Assay type: cell-based
Conditions: cells pretreated 1 hour before Cas9 RNPs added outside the cells; genomic DNA collected after 48 hours, target locus analyzed for Cas9-mediated targeted genomic deletions; FIG. 1
Experimental: Neural progenitor cells with a tdTomato reporter gene were pretreated with Bafilomycin A1 for 1 hour prior to addition of Cas9 RNPs outside of the cells. After 24 hours cells were washed 2× with Heparin to remove any remaining Cas9 RNP outside the cells. After 48 hours genomicDNA was collected and the target locus analyzed for Cas9-mediated targeted genomic deletions.

CO/C1=C\C(C)=C\[C@@H](C)[C@@H](O)[C@@H](C)C/C(C)=C/C=C/[C@H](OC)[C@@H]([C@@H](C)[C@@H](O)[C@H](C)[C@@]2(O)C[C@@H](O)[C@H](C)[C@@H](C(C)C)O2)OC1=O [bafilomycin A1] was tested, and the “editing efficiency of 0×NLS-Cas9-2×NLS” value was “no effect” and the “editing efficiency of cell penetrating Cas9 RNP, 4×NLS-Cas9-2×NLS” value was “specifically increased”.
